From patent publication US9504702B2, “Methods of inhibition of protein fucosylation in vivo using fucose analogs” (Seattle Genetics, Inc., priority 2010, dated 2016)

Tests used:
[1] = tested on: Caki-1 renal cell carcinoma; assay: Xenograft of pre-treated Caki-1 cells (Example 7, Study 2); format: in vivo, female nude mice; details: 20 mM in drinking water, not in first treatment period, observed in second
Procedure: (§1) To further evaluate the activity of these fucose analogs, further studies were performed in vivo using tumor cells that had been pre-treated by culturing in the presence of a fucose analog, or using untreated tumor cells. Tumor cells were implanted into 10 mice per group as follows. For the LS174T, PC-3, and Caki-1 cell lines, 5×10^5 cells in 25% Matrigel were implanted subcutaneously into female nude mice. For HL-60 and Ramos cell lines, 5×10^6 cells were implanted subcutaneously into female SCID mice. For mice implanted with untreated tumor cells, mice were provided regular drinking water. For mice implanted with tumor cells pre-treated with 2-fluorofucose (SGD-2083), the mice were provided drinking water supplemented with 20 mM 2-fluorofucose (SGD-2083). For mice implanted with tumor cells pre-treated with alkylnyl fucose (SGD-1887), the mice were provided with regular drinking water.
(§2) After 3 weeks of receiving 2-fluorofucose-containing drinking water, mice were returned to regular drinking water, except for mice with Caki-1 tumors. The latter mice were returned to regular drinking water for one week. After the week of receiving regular water, mice were randomized to two groups of 5 each to receive drinking water supplemented with 20 mM 2-fluorofucose or regular drinking water. Mice were sacrificed when tumors reached about 1000 mm^3.

Ramos Burkitt lymphoma = assay: Xenograft of pre-treated Ramos cells (Example 7, Study 2); format: in vivo, female SCID mice; details: 20 mM in drinking water
Procedure: as §1, §2

[2] = tested on: LS174T colon adenocarcinoma; assay: Xenograft of pre-treated LS174T cells (Example 7, Study 2); format: in vivo, female nude mice; details: 20 mM in drinking water
Procedure: as §1, §2

[3] = tested on: antibody core fucosylation (antibodies that did not bind to KLH, recovered from protein A column); format: in vivo; details: 100 mM in drinking water for 14 days; non-KLH antibodies; dot blot; untreated 81%
Procedure: Female BALB/c mice were immunized with Keyhole Limpet Hemocyanin (KLH) 30-60 days prior to starting this study. For the first study, mice were dosed ip with 150 mg/kg of alkynyl fucose (SGD-1887), alkynyl fucose peracetate (SGD-1890), 2-fluorofucose (SGD-2083), or 2-fluorofucose triacetate (SGD-2084) daily for 7 days or were untreated. On day 2, mice were also boosted with KLH. On the day after the last ip dose, mice were terminally bled and serum obtained. For the second study, mice were given 100 mM of 2-fluorofucose (SGD-2083) in their drinking water or given untreated water for 7 days, boosted with KLH, and continued with 100 mM 2-fluorofucose containing drinking water or untreated water for 7 more days before being terminally bled. Serum was then obtained. No mice died in either study. For both studies, serum was passed over a commercial anti-KLH affinity column to obtain KLH-specific polyclonal antibodies. […]
Dot blots: 0.5 μg each of antibodies from untreated and treated animals, as well as standards of antibody cAC10 having known amounts of core fucosylation (0 to 100% fucose), were blotted onto a nitrocellulose membrane. […] Gel loading (visible) and fucose signals (bioluminescence) were measured with an Alpha Innotech camera and quantitated with the machine software.

[4] = tested on: core antibody fucosylation (endogenous antibodies); assay: Antibody fucosylation in vivo following oral administration, dose study (Example 3), dot blot; set-up: species or system Female BALC/c mice
Procedure: In this study, the effects of oral administration of the fucose analog 2-fluorofucose (SGD-2083) were further examined. Female BALC/c mice were offered […] 2-fluorofucose in their drinking water for 14 days. Mice were immunized with TiterMAX Classic and offered 1, 10 and 100 mM 2-fluorofucose in their drinking water for an additional 7 days. Mice were then terminally bled and serum obtained. Endogenous antibodies were purified by passing the serum over a protein A column
The collected antibodies were evaluated for fucosylation levels by dot blot as follows. Antibodies from untreated and treated animals (0.5 μg each), as well as standards of cAC10 with 0 to 100% fucose (only study 1), were blotted onto a nitrocellulose membrane. The proteins levels were visualized with Ponceau S. The blot was probed with biotinylated AOL lectin and developed with streptavidin HRP and ECL (as described above). Gel loading (visible) and fucose signals (bioluminescence) were measured with an Alpha Innotech camera and quantitated with the machine software.

SMILES: C[C@H](O)[C@@H](O)[C@@H](O)[C@H](F)C=O [SGD-2083, 2-fluoro-2-deoxy fucose]
- tumor growth [1]: tumor growth inhibition in vivo was seen
- tumor growth (Ramos Burkitt lymphoma): No change in tumor growth
- tumor growth [2]: tumor growth inhibition in vivo was seen
- fucosylation levels (average, treated animals) [3]: 7%
- antibody fucosylation levels ([4]; 1 mM in drinking water): highest in the untreated control and 1 mM 2-fluorofucose groups
- fucosylation levels of antibodies ([4]; 1, 10 and 100 mM in drinking water, 21 days): dose-dependent decrease
- antibody fucosylation levels ([4]; intermediate concentration (10 mM) in drinking water, compared with 100 mM): nearly as depleted of fucose as the high concentration
